Calls of active or inactive are those of the source.
Legend:
ORF 73 = ORF 73 (Human herpesvirus 8, UniProt O40947); assay: KSHV LANA DNA-binding disruption – biochemical, fluorescence polarization, cherry-picked samples, dose response (AID 504725); design: species or system Human gammaherpesvirus 8;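 also: fluorescence polarization of a labeled DNA duplex reporting LANA DNA binding; potency is for inhibitors that block LANA binding to the DNA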
[1] = biological target: Dual specificity protein phosphatase 3 (Homo sapiens, UniProt P51452); assay: inhibition constants for human DUSP3 – biochemical, colorimetric, SAR follow-up (AID 2004)
[2] = biological target: T1, Short transient receptor potential channel 4 (Mus musculus, UniProt Q9QUQ5); assay: block of DAMGO-driven TRPC4 calcium entry – cell-based, HEK293 TRPC4/mu-opioid, Fluo-4 calcium, dose response (AID 434942); type: functional;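 also: potency of inhibitors blocking the TRPC4 calcium response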
T1 sequence (Q9QUQ5 whole entry): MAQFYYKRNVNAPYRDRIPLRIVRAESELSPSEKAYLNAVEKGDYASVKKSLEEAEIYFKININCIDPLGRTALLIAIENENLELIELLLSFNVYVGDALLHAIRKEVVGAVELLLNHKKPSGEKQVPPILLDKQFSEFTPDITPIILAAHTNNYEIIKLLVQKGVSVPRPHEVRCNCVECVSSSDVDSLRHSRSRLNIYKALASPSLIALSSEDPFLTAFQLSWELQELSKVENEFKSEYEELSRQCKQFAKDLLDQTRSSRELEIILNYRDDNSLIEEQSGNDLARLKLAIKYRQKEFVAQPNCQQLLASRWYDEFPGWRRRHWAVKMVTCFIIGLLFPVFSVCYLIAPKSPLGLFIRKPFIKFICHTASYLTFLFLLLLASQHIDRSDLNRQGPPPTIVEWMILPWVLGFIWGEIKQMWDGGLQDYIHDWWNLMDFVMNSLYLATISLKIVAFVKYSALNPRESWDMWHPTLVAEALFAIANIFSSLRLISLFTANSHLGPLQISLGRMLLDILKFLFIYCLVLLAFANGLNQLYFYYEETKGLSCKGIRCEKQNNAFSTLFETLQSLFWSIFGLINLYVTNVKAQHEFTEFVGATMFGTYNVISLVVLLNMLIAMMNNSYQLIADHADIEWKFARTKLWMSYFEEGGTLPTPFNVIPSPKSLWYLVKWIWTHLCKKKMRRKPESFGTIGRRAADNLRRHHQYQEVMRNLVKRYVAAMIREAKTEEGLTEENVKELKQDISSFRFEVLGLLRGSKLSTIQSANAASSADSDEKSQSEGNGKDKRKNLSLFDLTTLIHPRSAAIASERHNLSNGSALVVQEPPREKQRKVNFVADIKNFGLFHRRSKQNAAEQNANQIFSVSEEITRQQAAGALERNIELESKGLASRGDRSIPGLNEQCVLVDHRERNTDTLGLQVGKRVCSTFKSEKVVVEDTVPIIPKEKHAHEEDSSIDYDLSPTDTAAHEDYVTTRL

Hexokinase HKDC1 = Hexokinase HKDC1 (Homo sapiens, UniProt Q2TB90); assay: inhibition of HKDC1 glucose phosphorylation – biochemical, W721R variant, dose response (AID 504729); type: functional
[3] = biological target: T2, Replicative DNA helicase DnaB (Mycobacterium tuberculosis, UniProt P9WMR3); assay: DnaB intein splicing inhibitors, dose response, biochemical, cell-free fluorescence (AID 449749); type: functional
T2 sequence (P9WMR3 whole entry): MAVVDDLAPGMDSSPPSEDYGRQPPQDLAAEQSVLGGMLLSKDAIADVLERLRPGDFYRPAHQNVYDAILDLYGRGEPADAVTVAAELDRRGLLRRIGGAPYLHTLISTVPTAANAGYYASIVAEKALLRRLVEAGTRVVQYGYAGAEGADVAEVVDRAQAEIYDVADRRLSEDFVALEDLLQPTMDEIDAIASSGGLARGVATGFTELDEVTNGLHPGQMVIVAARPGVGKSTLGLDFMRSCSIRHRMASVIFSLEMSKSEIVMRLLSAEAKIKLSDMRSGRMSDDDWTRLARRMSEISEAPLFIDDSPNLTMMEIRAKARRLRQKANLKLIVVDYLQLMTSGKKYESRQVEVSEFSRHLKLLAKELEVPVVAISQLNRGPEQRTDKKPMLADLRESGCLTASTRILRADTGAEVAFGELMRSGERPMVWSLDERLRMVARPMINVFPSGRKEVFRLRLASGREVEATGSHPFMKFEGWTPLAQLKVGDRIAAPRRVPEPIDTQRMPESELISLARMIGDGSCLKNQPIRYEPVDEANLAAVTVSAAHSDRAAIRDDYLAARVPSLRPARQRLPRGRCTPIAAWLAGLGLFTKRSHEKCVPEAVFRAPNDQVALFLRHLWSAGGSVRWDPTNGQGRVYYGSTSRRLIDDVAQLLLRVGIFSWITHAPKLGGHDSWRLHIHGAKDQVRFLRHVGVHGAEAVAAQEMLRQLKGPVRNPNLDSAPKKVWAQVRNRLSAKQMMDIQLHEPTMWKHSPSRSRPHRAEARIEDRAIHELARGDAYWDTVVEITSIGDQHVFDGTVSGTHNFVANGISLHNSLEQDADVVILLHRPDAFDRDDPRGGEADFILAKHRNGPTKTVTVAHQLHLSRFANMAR

Protein RecA = biological target: T3, Protein RecA (Mycobacterium tuberculosis, UniProt P9WHJ3); assay: Fluorescence Cell-Free Homogeneous Dose Retest to Identify Inhibitors of RecA-Intein Splicing Activity. [Related pubchem assays (depositor defined):AID2097, AID2223, AID489010, AID492950]; type: functional
T3 sequence (P9WHJ3 whole entry): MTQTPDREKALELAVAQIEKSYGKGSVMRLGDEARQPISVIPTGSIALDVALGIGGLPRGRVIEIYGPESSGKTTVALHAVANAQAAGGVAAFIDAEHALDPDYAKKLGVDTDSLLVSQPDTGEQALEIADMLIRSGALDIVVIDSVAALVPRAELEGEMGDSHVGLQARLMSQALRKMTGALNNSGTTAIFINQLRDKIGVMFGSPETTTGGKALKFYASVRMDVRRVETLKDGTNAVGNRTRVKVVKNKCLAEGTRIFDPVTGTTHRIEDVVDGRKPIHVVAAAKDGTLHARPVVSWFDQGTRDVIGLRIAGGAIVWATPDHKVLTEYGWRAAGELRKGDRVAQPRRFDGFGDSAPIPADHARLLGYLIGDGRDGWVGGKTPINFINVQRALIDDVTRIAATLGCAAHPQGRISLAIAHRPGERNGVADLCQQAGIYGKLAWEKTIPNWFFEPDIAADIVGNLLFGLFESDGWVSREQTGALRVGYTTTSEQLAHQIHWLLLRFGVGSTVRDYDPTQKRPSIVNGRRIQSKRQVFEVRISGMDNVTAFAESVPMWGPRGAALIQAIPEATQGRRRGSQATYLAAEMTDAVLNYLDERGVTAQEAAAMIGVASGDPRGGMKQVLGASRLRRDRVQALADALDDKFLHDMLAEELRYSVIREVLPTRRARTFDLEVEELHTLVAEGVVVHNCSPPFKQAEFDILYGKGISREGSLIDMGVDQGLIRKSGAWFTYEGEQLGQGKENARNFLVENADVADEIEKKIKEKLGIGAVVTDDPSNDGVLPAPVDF

[4] = biological target: Intestinal-type alkaline phosphatase (Homo sapiens, UniProt P09923); assay: Dose Response confirmation of uHTS hits from a small molecule inhibitors of human intestinal alkaline phosphatase via a luminescent assay. [Related pubchem assays (depositor defined):AID2544, AID2574]; type: functional
[5] = Cytotoxicity screening for potential Inhibitors of Bacterial Capsule Biogenesis. [Related pubchem assays (depositor defined):AID488970]; type: functional
Nonstructural protein 1 = Nonstructural protein 1 (Influenza A virus, UniProt Q194T2); type: functional, Influenza A virus (A/California/07/2009(H1N1))
[6] = reduction of Shn3 3'UTR-driven luciferase in osteoblasts – cell-based, Clone20 osteoblasts, firefly luciferase, cherry-picked, dose response (AID 624132); type: functional;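 also: firefly luciferase luminescence from reporter carrying the Shn3 3'UTR in osteoblasts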
[7] = loss of viability in HepG2 cells – cell-based, CellTiter-Glo, cherry-picked, cytotoxicity control for Shn3 inhibitor project, dose response (AID 624134); type: functional
[8] = non-specific 3'UTR reporter inhibition in Clone20-Shn3RL – cell-based, Renilla luciferase, cherry-picked, counter-screen for Shn3 inhibitor project, dose response (AID 624133); type: functional
[9] = viability loss in HeLa cells – cytotoxicity control for MgcRacGAP inhibitor project, dose response (AID 624300); type: functional
[10] = biological target: T4, Rac GTPase-activating protein 1 (Homo sapiens, UniProt Q9H0H5); assay: blockers of MgcRacGAP-driven Rac1 GTP hydrolysis – biochemical, ADP Hunter fluorescence, primary and confirmatory, confirmation (AID 624330); type: functional
T4 sequence (Q9H0H5 whole entry): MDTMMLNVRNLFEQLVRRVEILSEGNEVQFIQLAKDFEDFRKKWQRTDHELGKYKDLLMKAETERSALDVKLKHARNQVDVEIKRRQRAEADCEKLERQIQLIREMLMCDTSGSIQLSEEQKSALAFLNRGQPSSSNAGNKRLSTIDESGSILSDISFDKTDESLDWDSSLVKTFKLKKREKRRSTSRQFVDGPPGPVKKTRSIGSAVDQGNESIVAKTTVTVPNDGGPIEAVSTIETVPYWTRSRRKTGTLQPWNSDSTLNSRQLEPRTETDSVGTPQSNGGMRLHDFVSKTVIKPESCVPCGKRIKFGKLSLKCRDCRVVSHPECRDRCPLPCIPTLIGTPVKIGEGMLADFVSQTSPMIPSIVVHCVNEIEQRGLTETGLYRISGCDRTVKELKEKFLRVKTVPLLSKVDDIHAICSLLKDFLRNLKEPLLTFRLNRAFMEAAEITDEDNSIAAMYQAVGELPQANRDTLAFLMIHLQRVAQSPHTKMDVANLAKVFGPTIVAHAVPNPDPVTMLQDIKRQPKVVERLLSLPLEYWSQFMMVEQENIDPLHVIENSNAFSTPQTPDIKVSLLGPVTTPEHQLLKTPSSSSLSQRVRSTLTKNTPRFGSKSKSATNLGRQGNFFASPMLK

[11] = biological target: T5, DNA repair protein RAD52 homolog (Homo sapiens, UniProt P43351); type: functional, biochemical
T5 sequence (P43351 whole entry): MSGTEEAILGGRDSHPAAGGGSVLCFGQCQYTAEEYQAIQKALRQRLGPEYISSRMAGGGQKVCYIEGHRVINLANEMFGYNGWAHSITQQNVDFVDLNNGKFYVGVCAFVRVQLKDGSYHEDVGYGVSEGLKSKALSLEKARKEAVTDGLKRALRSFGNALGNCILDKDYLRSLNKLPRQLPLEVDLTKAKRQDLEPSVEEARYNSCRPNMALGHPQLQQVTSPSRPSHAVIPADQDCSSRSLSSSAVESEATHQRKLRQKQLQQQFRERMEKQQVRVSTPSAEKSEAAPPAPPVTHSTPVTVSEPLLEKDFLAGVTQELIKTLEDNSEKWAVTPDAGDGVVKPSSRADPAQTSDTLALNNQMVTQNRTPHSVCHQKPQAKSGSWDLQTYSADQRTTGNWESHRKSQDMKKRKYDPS

[12] = inhibition of mouse IRAP aminopeptidase activity – biochemical, Leu-AMC fluorescence, cherry-picked samples, set 2, selectivity assay for ERAP1 modulator project, dose response (AID 743340)
[13] = biological target: Endoplasmic reticulum aminopeptidase 1 (Homo sapiens, UniProt Q9NZ08); assay: inhibition of human ERAP1 enzyme activity – biochemical, cherry-pick, set 2, plate reader, dose response (AID 743314)
X-box-binding protein 1 = X-box-binding protein 1 (Homo sapiens, UniProt P17861); type: functional, Cricetulus griseus;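 also: confirmatory dose-response counter-screen serving a CHOP assay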
[14] = biological target: Protein phosphatase methylesterase 1 (Homo sapiens, UniProt Q9Y570); assay: endogenous PME-1 and serine hydrolase inhibition – cell lysate, mouse brain cytosol, FP-rhodamine, gel ABPP, selectivity assay for PME-1 inhibitor project, dose response, panel member PME-1 Assay Panel member description: Inhibition of endogenously expressed PME-1 (AID 2366)
[15] = biological target: T6, Voltage-gated N-type calcium channel alpha-1B subunit/Amyloid beta A4 precursor protein-binding family A member 1 (Homo sapiens, UniProt Q00975+Q02410); assay: disruptors of Mint-PDZ/N-type channel peptide interaction – biochemical, HTRF, set 2, SAR follow-up (AID 434980); type: functional
[16] = biological target: T6, Voltage-gated N-type calcium channel alpha-1B subunit/Amyloid beta A4 precursor protein-binding family A member 1; assay: disruptors of Mint-PDZ/N-type channel peptide interaction – biochemical, HTRF, SAR follow-up (AID 2489); type: functional

T6 sequence (Q00975 whole entry): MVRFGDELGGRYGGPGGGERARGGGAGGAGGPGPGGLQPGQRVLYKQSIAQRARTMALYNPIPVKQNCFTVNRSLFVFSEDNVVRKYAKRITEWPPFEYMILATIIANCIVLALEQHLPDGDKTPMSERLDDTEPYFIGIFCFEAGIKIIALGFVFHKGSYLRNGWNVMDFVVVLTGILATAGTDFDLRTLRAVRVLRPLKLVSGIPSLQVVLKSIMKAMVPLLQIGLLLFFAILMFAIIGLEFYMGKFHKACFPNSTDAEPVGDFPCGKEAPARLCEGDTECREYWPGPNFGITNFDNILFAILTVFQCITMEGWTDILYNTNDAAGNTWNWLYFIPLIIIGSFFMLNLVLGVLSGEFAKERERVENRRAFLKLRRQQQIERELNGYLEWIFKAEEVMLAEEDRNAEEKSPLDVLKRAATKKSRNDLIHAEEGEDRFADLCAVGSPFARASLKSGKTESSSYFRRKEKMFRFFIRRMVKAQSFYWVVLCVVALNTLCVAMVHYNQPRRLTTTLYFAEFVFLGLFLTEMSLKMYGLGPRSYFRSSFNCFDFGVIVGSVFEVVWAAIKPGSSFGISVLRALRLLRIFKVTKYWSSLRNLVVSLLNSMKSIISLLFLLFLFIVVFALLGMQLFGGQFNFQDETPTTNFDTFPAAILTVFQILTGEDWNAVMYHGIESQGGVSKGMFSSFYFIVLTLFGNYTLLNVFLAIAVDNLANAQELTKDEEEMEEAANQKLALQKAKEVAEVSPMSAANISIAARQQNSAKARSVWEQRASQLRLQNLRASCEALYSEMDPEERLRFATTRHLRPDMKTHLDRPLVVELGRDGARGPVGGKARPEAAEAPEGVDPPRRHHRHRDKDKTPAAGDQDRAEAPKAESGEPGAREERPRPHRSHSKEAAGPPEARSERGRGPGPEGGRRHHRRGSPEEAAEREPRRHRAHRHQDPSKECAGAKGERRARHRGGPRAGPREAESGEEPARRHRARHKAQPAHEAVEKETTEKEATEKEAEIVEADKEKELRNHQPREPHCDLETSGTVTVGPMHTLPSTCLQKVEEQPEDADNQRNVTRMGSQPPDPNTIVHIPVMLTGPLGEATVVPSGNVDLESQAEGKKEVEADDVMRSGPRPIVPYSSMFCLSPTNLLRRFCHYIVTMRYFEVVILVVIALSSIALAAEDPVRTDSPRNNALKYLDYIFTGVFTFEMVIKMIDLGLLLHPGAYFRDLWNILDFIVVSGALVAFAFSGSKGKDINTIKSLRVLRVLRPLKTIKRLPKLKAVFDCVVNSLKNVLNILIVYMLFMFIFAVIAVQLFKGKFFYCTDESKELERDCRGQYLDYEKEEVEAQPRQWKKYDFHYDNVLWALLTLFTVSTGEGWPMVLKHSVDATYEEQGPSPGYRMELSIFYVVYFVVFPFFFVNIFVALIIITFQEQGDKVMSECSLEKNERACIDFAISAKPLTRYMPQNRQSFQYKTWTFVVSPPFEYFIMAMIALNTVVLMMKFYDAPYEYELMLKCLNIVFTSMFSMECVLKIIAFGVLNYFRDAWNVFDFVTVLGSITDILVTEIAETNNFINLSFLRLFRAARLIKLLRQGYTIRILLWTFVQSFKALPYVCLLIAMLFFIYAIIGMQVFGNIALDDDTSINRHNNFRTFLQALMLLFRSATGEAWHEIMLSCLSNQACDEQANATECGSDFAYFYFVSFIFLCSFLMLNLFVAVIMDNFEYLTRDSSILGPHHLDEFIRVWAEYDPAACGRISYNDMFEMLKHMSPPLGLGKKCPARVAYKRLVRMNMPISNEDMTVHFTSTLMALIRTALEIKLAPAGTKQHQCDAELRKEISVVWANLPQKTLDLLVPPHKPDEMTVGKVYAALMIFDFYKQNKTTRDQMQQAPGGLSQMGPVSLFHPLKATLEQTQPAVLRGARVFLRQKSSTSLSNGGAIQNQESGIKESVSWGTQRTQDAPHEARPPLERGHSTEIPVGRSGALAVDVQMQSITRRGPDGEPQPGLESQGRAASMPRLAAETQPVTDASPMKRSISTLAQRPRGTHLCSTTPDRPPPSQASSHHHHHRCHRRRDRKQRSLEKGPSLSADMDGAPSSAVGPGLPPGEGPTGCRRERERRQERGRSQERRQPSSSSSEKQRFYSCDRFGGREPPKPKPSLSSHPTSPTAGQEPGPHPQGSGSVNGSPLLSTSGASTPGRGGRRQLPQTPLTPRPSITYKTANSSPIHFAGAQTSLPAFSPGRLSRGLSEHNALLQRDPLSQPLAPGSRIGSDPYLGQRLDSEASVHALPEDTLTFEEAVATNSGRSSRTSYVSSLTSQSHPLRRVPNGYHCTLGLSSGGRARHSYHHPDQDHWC
T6 sequence (Q02410 whole entry): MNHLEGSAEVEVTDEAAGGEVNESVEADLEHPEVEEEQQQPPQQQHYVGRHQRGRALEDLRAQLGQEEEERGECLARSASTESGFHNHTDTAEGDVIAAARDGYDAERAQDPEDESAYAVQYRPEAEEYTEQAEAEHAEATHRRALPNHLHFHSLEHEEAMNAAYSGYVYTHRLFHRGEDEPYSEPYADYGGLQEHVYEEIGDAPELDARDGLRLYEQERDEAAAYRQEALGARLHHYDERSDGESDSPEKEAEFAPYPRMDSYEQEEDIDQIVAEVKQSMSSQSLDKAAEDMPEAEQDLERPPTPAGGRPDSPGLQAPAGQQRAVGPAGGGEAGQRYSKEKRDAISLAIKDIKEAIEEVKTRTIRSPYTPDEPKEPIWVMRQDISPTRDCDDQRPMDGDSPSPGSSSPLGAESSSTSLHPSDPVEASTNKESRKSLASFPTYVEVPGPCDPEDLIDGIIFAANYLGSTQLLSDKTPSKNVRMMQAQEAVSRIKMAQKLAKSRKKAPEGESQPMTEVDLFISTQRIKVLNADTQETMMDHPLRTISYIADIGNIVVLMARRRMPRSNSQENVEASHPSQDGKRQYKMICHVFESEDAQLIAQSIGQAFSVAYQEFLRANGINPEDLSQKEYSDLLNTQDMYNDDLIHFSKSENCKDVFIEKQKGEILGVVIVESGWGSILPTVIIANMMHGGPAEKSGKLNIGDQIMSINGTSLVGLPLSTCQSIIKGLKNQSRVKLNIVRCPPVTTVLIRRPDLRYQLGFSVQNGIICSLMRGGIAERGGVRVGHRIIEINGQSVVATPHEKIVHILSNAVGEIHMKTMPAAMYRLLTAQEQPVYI
Nonstructural protein 1, sequence (Q194T2 whole entry): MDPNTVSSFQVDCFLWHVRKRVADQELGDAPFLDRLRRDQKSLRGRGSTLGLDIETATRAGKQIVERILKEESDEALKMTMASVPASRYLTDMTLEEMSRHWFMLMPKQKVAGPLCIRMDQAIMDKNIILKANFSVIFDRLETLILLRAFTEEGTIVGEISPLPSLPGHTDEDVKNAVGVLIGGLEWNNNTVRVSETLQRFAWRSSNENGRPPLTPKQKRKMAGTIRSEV
X-box-binding protein 1, sequence (P17861 whole entry): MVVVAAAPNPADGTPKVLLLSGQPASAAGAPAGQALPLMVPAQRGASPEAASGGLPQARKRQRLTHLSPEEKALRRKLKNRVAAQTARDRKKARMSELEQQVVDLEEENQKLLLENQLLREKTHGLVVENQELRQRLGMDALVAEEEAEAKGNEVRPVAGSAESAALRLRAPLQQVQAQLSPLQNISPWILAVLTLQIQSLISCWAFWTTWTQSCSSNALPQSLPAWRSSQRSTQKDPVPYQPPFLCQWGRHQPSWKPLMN
ORF 73, sequence (O40947 whole entry): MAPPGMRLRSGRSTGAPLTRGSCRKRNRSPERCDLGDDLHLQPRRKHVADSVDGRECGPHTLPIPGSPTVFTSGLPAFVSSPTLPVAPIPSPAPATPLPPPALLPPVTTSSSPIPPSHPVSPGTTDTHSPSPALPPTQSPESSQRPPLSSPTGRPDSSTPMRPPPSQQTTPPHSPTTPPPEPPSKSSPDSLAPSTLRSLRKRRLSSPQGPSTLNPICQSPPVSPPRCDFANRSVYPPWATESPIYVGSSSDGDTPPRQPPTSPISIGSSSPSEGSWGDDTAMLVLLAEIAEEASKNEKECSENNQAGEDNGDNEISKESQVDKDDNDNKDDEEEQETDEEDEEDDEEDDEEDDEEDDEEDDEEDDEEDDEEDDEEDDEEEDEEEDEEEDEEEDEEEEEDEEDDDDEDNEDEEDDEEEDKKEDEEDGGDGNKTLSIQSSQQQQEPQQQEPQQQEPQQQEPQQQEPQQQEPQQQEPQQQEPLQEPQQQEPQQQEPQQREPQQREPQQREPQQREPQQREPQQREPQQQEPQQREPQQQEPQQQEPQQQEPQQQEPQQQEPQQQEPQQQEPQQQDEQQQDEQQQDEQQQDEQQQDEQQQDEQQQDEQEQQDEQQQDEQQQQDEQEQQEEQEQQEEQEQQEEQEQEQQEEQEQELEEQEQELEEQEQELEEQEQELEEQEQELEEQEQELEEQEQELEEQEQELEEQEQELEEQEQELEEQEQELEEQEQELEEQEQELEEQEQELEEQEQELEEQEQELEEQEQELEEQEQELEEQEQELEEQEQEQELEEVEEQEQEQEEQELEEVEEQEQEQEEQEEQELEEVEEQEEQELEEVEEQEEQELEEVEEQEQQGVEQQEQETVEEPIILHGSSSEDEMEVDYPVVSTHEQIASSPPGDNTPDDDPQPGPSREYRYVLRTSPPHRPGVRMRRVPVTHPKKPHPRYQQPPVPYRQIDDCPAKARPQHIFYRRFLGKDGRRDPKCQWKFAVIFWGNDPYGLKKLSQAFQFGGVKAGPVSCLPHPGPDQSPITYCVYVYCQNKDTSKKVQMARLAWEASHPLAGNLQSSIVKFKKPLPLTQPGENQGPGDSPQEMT
Dual specificity protein phosphatase 3, sequence (P51452 whole entry): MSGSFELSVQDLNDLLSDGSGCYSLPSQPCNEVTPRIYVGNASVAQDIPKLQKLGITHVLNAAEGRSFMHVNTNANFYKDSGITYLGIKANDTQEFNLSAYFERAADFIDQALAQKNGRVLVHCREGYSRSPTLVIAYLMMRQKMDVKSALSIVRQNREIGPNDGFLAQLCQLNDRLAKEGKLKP

Question: For `CCOc1ccc(-n2c(Cc3cc(O)nc(O)n3)nnc2SCc2cccnc2)cc1`, which AC50 (ORF 73) is on record?
Answer: Its AC50 is 76.4 µM (active).

Question: Which Ki [1] does the source give for `COc1ccc(C2C3C(=O)N(c4ccccc4)C(=O)C3N3CCCN23)cc1` (stereo unspecified) here?
Answer: Its Ki is 112 µM (inactive).

Question: Which EC50 [2] does the source give for `CCCCn1c2ccccc2c2nnc(SCCN3CCCCC3)nc21` here?
Answer: Its EC50 is 6.68 µM (active).

Question: Which IC50 (Hexokinase HKDC1) does the source give for `CC(OC(=O)c1cc(O)c2ccccc2c1O)C(=O)Nc1ccc(C(N)=O)cc1` (stereo unspecified) here?
Answer: Its IC50 is 52.7 µM (inactive).

Question: What about the AC50 [3] of the same molecule?
Answer: The AC50 was 5.11 µM (active).

Question: And the EC50 (Protein RecA)?
Answer: Its EC50 is 4.51 µM (active).

Question: For `COC(=O)CN1C(=O)C(O)(CC(=O)c2ccc(C)cc2)c2ccccc21` (stereo unspecified), which IC50 [4] is on record?
Answer: Its IC50 is > 100 µM (inactive).

Question: What does the source list for `CCN(CCCl)c1cc(CN(C)C)cc(NC(=O)c2ccc(C(=O)Nc3cc(CN(C)C)cc(N(CC)CCCl)c3)cc2)c1`?
Answer: CC50 [5]: < 0.38 µM (active); IC50 (Nonstructural protein 1): 7.89 µM (active); AC50 [6]: 2.65 µM (active); AC50 [7]: 1.25 µM (active); AC50 [8]: 13.1 µM (active); CC50 [9]: 6.78 µM (active); IC50 [10]: 126 µM (active); AC50 [11]: 1.71 µM (active); AC50 [12]: 19.4 µM (active); AC50 [13]: 4.85 µM (active)

Question: Which “Absolute IC50 (XBP1)” value (X-box-binding protein 1) does the source give for `Cc1csc(NC(=O)CSc2nnc3c4ccccc4nc(C(C)(C)C)n23)n1` here?
Answer: The value was 10 µM.

Question: For `N#CC(C#N)=Cc1cccn1S(=O)(=O)c1ccccc1`, which IC50 [14] is on record?
Answer: Its IC50 is 20 µM (inactive).

Question: Which IC50 [15] does the source give for `CC12C=CC(C)(O1)C1C(=O)N(c3ccc(Cl)cc3)C(=O)C12` (stereo unspecified) here?
Answer: Its IC50 is > 56.8 µM (inactive).

Question: What about the IC50 [16] of the same molecule?
Answer: Its IC50 is > 56.8 µM (inactive).
